Data: ChEMBL document CHEMBL1131608, “Structure-activity relationships and molecular modeling of 3, 5-diacyl-2,4-dialkylpyridine derivatives as selective A3 adenosine receptor antagonists” (J Med Chem, 1998)

How the values were obtained:
[1] = molecular target: T1, Adenosine receptor A1 (Rattus norvegicus) (UniProt P25099); test: Binding affinity towards adenosine A1 receptor by measuring its ability to displace [3H]-R-PIA in rat brain membranes at a concentration of 10e-4 M; assay type: cell membranes
T1 sequence (whole entry): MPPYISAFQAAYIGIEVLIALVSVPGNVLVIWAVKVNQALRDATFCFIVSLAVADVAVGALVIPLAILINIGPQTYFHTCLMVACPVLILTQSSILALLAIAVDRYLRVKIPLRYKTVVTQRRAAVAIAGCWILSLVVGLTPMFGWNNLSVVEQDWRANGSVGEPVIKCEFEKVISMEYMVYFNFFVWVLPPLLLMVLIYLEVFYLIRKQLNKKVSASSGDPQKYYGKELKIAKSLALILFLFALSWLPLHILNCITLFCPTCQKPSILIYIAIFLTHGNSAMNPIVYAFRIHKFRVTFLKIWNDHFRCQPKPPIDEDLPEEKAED

[2] = tested on: HEK293; test: Selectivity for binding affinity towards A1 adenosine receptor in rat brain membrane and human A3 receptor expressed in HEK cells; assay type: cell-based
[3] = molecular target: Adenosine receptor A2a (Rattus norvegicus) (UniProt P30543); test: Binding affinity towards adenosine A2A receptor by measuring its ability to displace [3H]-CGS- 21680 in rat striatal membranes at a concentration of 10e-4 M; assay type: cell membranes; conditions: Striatum, Membrane
[4] = molecular target: T2, Adenosine receptor A3 (Homo sapiens) (UniProt P0DMS8); test: Binding affinity towards adenosine A3 receptor by measuring its ability to displace [125I]AB-MECA binding to membranes prepared from HEK293 cells; assay type: cell membranes
T2 sequence (whole entry): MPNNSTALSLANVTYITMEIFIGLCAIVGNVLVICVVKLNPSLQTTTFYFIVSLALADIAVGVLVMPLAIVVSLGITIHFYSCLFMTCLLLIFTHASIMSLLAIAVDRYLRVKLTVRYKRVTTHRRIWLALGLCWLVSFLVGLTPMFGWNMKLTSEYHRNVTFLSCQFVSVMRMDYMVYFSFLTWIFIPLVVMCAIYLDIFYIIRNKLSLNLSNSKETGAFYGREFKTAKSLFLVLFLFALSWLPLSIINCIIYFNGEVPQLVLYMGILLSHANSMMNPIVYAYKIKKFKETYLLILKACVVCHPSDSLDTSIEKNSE

[5] = molecular target: Adenosine receptor A2a (Rattus norvegicus) (UniProt P30543); test: Binding affinity for adenosine A2A receptor as displacement of [3H]-CGS- 21680 from rat striatal membranes at 10e-4 M; assay type: cell membranes; conditions: Membrane
[6] = molecular target: T3, Adenosine receptor A1 (Rattus norvegicus, UniProt P25099); test: Binding affinity for adenosine A1 receptor as displacement of [3H]R-PIA from rat brain membranes; assay type: cell membranes, Membrane
T3 sequence (P25099 whole entry): T1 sequence (whole entry)

[7] = molecular target: T4, Adenosine receptor A2a (Rattus norvegicus, UniProt P30543); test: Binding affinity for adenosine A2A receptor as displacement of [3H]-CGS- 21680 from rat striatal membranes; assay type: cell membranes, Membrane
[8] = molecular target: T3, Adenosine receptor A1; test: Binding affinity for adenosine A1 receptor as displacement of [3H]R-PIA from rat brain membranes at 10e-4 M; assay type: cell membranes, Membrane
[9] = molecular target: T4, Adenosine receptor A2a
[10] = molecular target: T2, Adenosine receptor A3 (Homo sapiens); test: Binding affinity for adenosine A3 receptor as displacement of [125I]AB-MECA from HEK293 cell membranes at 10e-4 M

T4 sequence (P30543 whole entry): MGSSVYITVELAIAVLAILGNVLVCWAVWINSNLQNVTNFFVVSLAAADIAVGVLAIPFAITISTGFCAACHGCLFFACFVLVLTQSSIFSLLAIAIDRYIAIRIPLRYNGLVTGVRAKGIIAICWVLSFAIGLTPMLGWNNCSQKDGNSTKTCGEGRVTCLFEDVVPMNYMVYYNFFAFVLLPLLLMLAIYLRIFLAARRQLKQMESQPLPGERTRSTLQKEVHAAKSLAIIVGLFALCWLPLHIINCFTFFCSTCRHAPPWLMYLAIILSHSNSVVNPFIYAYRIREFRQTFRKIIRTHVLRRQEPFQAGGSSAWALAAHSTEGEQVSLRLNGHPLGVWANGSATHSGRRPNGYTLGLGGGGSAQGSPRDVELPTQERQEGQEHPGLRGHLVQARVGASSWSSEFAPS
Adenosine receptor A2a (Rattus norvegicus), sequence (P30543 whole entry): as above

SMILES | inhibition [1] [%] | inhibition [3] [%] | Ki [4] [nM] | Ratio [2] | also measured
CCCOC(=O)c1c(-c2ccccc2)nc(CC)c(C(=O)SCC)c1CC | 7.77 | < 10 | 8.29 | 940 | –
CCOC(=O)C1=C(C)NC(C2CCCCC2)=C(C(=O)OCc2ccccc2)C1C#Cc1ccccc1 (centres undefined) | 22 | – | – | – | inhibition [5]: 20%
CCOC(=O)c1c(C)nc(-c2ccccc2)c(C(=O)OCC)c1CC | 3.36 | 3.69 | 176 | 19 | –
CCOC(=O)c1c(-c2ccccc2)nc(C)c(C(=O)SCCOC)c1CC | 36 | 7.98 | 165 | > 500 | –
CCOC(=O)c1c(C)nc(C2CCCC2)c(C(=O)OCc2ccccc2)c1C#Cc1ccccc1 | – | – | – | 15 | –
CCOC(=O)c1c(-c2ccccc2)nc(C2CCC2)c(C(=O)SCC)c1CC | 30 | 22 | 145 | > 500 | –
CCOC(=O)c1c(C)nc(-c2ccccc2)c(C(=O)OCC)c1C(OC)OC | 1.95 | 2.88 | 783 | 2.5 | –
CCO/C(O)=C1\C(C)=NC(c2ccccc2)=C(C(=O)OCc2ccccc2)C1C#Cc1ccccc1 (centres undefined) | – | < 10 | – | – | –
CCOC(=O)c1c(-c2ccccc2)nc(CC)c(C(=O)O)c1CC | 4.25 | 7.09 | 1280 | 3.3 | –
CCCO/C(O)=C1\C(C)=NC(c2ccccc2)=C(C(=O)OCC)C1C (centres undefined) | – | – | – | – | Ki [6]: 17400 nM; Ki [7]: 28900 nM
CCOC(=O)C1=C(c2ccccc2)N=C(C)/C(=C(/O)OCC)C1CC (centres undefined) | – | – | – | – | Ki [7]: 21800 nM
CCCOC(=O)c1c(-c2cccc(Cl)c2)nc(CC)c(C(=O)SCCC)c1CC | 41.4 | 24.1 | 7.94 | 5200 | –
CCOC(=O)c1c(C2CCCC2)nc(CC)c(C(=O)SCC)c1CC | 55.3 | 26.1 | 3380 | 16 | –
CCSC(=O)c1c(CC)nc(-c2ccccc2)c(C(=O)OCCO)c1CC | 17.4 | 10 | 188 | 93 | –
CCOC(=O)c1c(C)nc(-c2ccccc2)c(C(=O)OCC)c1C | – | 28.4 | – | – | –
CCO/C(O)=C1\C(C)=NC(c2ccccc2)=C(C(=O)OCc2ccc([N+](=O)[O-])cc2)C1C#Cc1ccccc1 (centres undefined) | – | – | – | – | Ki [8]: > 100000 nM; Ki [9]: > 100000 nM
CCOC(=O)c1c(-c2cccc(Cl)c2)nc(CC)c(C(=O)SCC)c1CC | 8.2 | 8.91 | 13.4 | 610 | –
CCSC(=O)c1c(C)nc(-c2ccccc2)c(C(=O)Oc2ccccc2)c1CC | 20 | 12.8 | 2610 | > 40 | –
CCOC(=O)C1=C(C)NC(C2CCC2)=C(C(=O)OCc2ccccc2)C1C#Cc1ccccc1 (centres undefined) | 36 | – | – | – | inhibition [5]: 10%
CNC(=O)[C@H]1O[C@@H](n2cnc3c(NCc4ccc(N)c(I)c4)ncnc32)[C@H](O)[C@@H]1O | – | – | – | – | Ki [8]: 3.4 nM
CCOC(=O)c1c(C)nc(C2CCC2)c(C(=O)OCc2ccccc2)c1C#Cc1ccccc1 | < 10 | – | – | – | –
CCOC(=O)c1c(CC)nc(-c2ccccc2)c(C(=O)OCC)c1C | 10.3 | 13.4 | 121 | 85 | –
CCCOC(=O)c1c(C)nc(-c2ccccc2)c(C(=O)OCC)c1C | 5.05 | 24.5 | 215 | 23 | –
CCOC(=O)C1=C(C)NC(C2CC2)=C(C(=O)OCc2ccccc2)C1C#Cc1ccccc1 (centres undefined) | 22 | – | – | – | inhibition [5]: 10%
CCOC(=O)C1=C(C)NC(C2CCCC2)=C(C(=O)OCc2ccccc2)C1C#Cc1ccccc1 (centres undefined) | – | – | – | 340 | –
CCOC(=O)c1c(C)nc(-c2ccccc2)c(C(=O)OCC)c1C=O | 9.56 | 2.56 | 1980 | 4.8 | –
CCOC(=O)c1c(C)nc(-c2ccccc2)c(C(=O)OCc2ccccc2)c1C#Cc1ccccc1 | – | – | – | 4.2 | inhibition [10]: 2.75%; Ki [7]: 43000 nM
CCOC(=O)C1=C(c2ccccc2)N=C(C)/C(=C(/O)OCC)C1/C=C/c1ccccc1 (centres undefined) | – | 4.77 | – | – | –

Now from value to compound, other results behind:

inhibition [1] [%] | inhibition [3] [%] | Ki [4] [nM] | SMILES | Ratio [2] | also measured
32 | < 10 | 15300 | CCOC(=O)C1=C(c2ccccc2)N=C(C)/C(=C(/O)OCC)C1C(OC)OC (centres undefined) | > 5 | –
26 | < 10 | 2090 | CCCC1=NC(c2ccccc2)=C(C(=O)OCC)C(CC)/C1=C(\O)SCC (centres undefined) | > 20 | –
20 | – | – | CCOC(=O)C1=C(c2ccccc2)N=C(CC)/C(=C(/O)OCC)C1C (centres undefined) | – | inhibition [5]: < 10%
41 | 6.13 | 20 | CCOC(=O)c1c(-c2ccccc2)nc(CC)c(C(=O)SCC)c1CC | > 3000 | –
16.7 | 2.82 | 33.3 | CCCc1nc(-c2ccccc2)c(C(=O)OCC)c(CC)c1C(=O)SCC | 500 | –
35.4 | 54.8 | – | CCOC(=O)C1=C(c2ccccc2)N=C(C)/C(=C(/O)SCC)C1CC (centres undefined) | – | –
29 | 7.53 | 194 | CCCc1c(C(=O)SCC)c(C)nc(-c2ccccc2)c1C(=O)OCC | > 700 | –
10.1 | 12.6 | 16.8 | CCOC(=O)c1c(-c2ccccc2)nc(CCOC)c(C(=O)SCC)c1CC | 600 | –
45 | – | 1650 | CCS/C(O)=C1\C(C)=NC(c2ccccc2)=C(C(=O)OCc2ccccc2)C1CC (centres undefined) | > 50 | inhibition [5]: 14.3%
8.22 | 15.7 | 15.9 | CCCSC(=O)c1c(CC)nc(-c2ccccc2)c(C(=O)OCC)c1CC | 520 | –
34 | 29.1 | 907 | CCOC(=O)C1=C(c2ccccc2)N=C(CC)/C(=C(/O)SCC)C1CC (centres undefined) | > 50 | –
48 | – | – | CCCC1C(C(=O)OCC)=C(c2ccccc2)N=C(C)/C1=C(/O)SCC (centres undefined) | – | inhibition [5]: 29%
26 | 32 | 15600 | CCOC(=O)C1=C(c2ccccc2)N=C(C)/C(=C(/O)OCC)C1C=O (centres undefined) | 6 | –
14.8 | 14.9 | 143 | CCOC(=O)c1c(-c2ccccc2)nc(C)c(C(=O)SCC)c1CC | 340 | –
36 | – | 4580 | CCOC(=O)C1=C(c2ccccc2)N=C(C)/C(=C(/O)SCCOC)C1CC (centres undefined) | > 10 | inhibition [5]: 12.5%
40.3 | < 10 | 35 | CCCCc1nc(-c2ccccc2)c(C(=O)OCC)c(CC)c1C(=O)SCC | 1200 | –
15.6 | 2.05 | 18.9 | CCCOC(=O)c1c(-c2ccccc2)nc(CC)c(C(=O)SCC)c1CCC | 830 | –
